Data published in article PMC8190750 (Cell Research, 2021).
Numbered stars: 1 amine (or outer) side, 2 acyl side, 3 side chain; on linkers, the order of the positions; unused ones are H or OH. Bridge positions count the residues as written; N and C are the ends. Square brackets hold non-standard residues; d marks the D form. Peptide text beside a SMILES is read from it. * marks the point of attachment. X1 = CC[C@H](C)[C@@H](N[*:1])[C@@H](O)CC(=O)O[C@H](C(=O)[C@H](C)C(=O)[*:2])C(C)C; NMeY = CN[C@@H](Cc1ccc(O)cc1)C(=O)O; dNMeL = CN[C@H](CC(C)C)C(=O)O; Pyruvoyl = CC(=O)C(=O)*

How the values were obtained:
SARS-CoV-2 [1] = settings: in vivo; cited from earlier work
2-E channels = 2-E channels (Severe acute respiratory syndrome coronavirus 2, UniProt P0DTC4); type: biochemical, SARS-CoV-2
Sequence of 2-E channels (P0DTC4 whole entry, looked up): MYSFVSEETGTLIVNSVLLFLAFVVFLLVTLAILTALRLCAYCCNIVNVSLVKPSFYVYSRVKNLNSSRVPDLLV

SARS-CoV-2 [2] = settings: in vivo; cited from earlier work; remark: listed apart in the source
SARS-CoV-2 [3] = settings: in vivo; cited from earlier work; remark: listed apart in the source
[4] = system: 2-E-induced cell death in Vero E6 cells; type: cell-based, African green monkey; settings: read-out: IC50 Cell protection
SARS-CoV-2 [5] = type: cell-based; settings: read-out: IC50 Anti-virus

Compound: OC(c1cc(C(F)(F)F)nc2c(C(F)(F)F)cccc12)C1CCCCN1 (stereo not shown) [mefloquine]
- prophylactic effects on viral replication and lung injuries (SARS-CoV-2 [1]): good prophylactic effects

Compound: COC(=O)C1=C(C)NC(C)=C(C(=O)OC)C1c1ccccc1[N+](=O)[O-] [Nifedipine]
- effects on 2-E channels (2-E channels): negligible effects

Compound: CC[N+](CC)(CC)CC [Tetraethylammonium]
- effects on 2-E channels (2-E channels): negligible effects

Compound: NC12CC3CC(CC(C3)C1)C2 [amantadine]
- concentration with inhibitory activity on 2-E channels (2-E channels): ≥ 50 µM

Compound: CCC(CC)COC(=O)[C@H](C)N[P@](=O)(OC[C@H]1O[C@@](C#N)(c2ccc3c(N)ncnn23)[C@H](O)[C@@H]1O)Oc1ccccc1 [remdesivir]
- virus loading in the respiratory tract (SARS-CoV-2 [2]): cannot reduce the virus loading in the respiratory tract

Compound: 5-(N, N-hexamethylene)-amiloride [HMA]
- cytotoxicity (in words) (Vero E6 cells): strong cytotoxicity
- concentration with inhibitory activity on 2-E channels (2-E channels): ≥ 50 µM

Compound: CCN(CCO)CCCC(C)Nc1ccnc2cc(Cl)ccc12 (stereo not shown) [hydroxychloroquine]
- virus loading or titers in the respiratory tissues (SARS-CoV-2 [3]): failed to reduce virus loading or titers in the respiratory tissues

Compound: CC[C@H](C)[C@H]1NC(=O)[C@@H](NC(=O)[C@@H](CC(C)C)N(C)C(=O)[C@@H]2CCCN2C(=O)C(C)=O)[C@@H](C)OC(=O)[C@H](Cc2ccc(OC)cc2)N(C)C(=O)[C@@H]2CCCN2C(=O)[C@H](CC(C)C)NC(=O)[C@@H](C)C(=O)[C@H](C(C)C)OC(=O)C[C@@H]1O [plitidepsin] (Pyruvoyl-P[dNMeL]T[X1]LP[NMeY](Me); ester 3-C)
- prophylactic effects on viral replication and lung injuries (SARS-CoV-2 [1]): good prophylactic effects

Compound: NC1=N[C@H](O)[C@H]2[C@H]3O[C@]4(O)O[C@@H]([C@@H](O)[C@@]2(N1)[C@@H]4O)[C@]3(O)CO [Tetrodotoxin]
- effects on 2-E channels (2-E channels): negligible effects

Compound: Berbamine [BE-12]
- IC50 [4]: 34.3 µM
- IC50 (SARS-CoV-2 [5]): 14.5 µM

Compound: CN[C@H]1C(=O)N[C@@H]2Cc3ccc(cc3)Oc3cc4cc(c3O[C@@H]3O[C@H](C(=O)O)[C@@H](O)[C@H](O)[C@H]3NC(=O)CCCCCCCCC(C)C)Oc3ccc(cc3Cl)[C@@H](O)[C@@H]3NC(=O)[C@H](NC(=O)[C@@H]4NC(=O)[C@@H](NC2=O)c2cc(cc(O)c2Cl)Oc2cc1ccc2O)c1ccc(O)c(c1)-c1c(O[C@H]2O[C@H](CO)[C@@H](O)[C@H](O)[C@@H]2O)cc(O)cc1[C@@H](C(=O)NCCCN(C)C)NC3=O [dalbavancin]
- prophylactic effects on viral replication and lung injuries (SARS-CoV-2 [1]): good prophylactic effects
